The subject of data set [1] is 3T3-L1 cells. Nature of the data set: Quantitative PCR of relative mRNA expression in cell culture samples. Type of data set: cell-based, Mouse. The following applies: for Gapdh expression / Hk2 expression / Pfkfb3 expression: 62.5 µM for 24 h. The method, then:
Mouse 3T3-L1 preadipocytes were maintained in proliferation medium containing DMEM supplemented with 10% (v/v) heat inactivated NBCS and 1% (v/v) penicillin-streptomycin at 37 °C with 5% CO2, humidified atmosphere. Cells were seeded in T-75 flasks at a density of 25×10^4 cells/flask. Cultures never became completely confluent according to the manufacturer's instructions. They were passaged using trypsin-EDTA solution once they reached 70-80% confluency. For differentiation, 3T3-L1 cells were seeded and after 24 h (day 1), cell differentiation was induced by changing the medium to high glucose DMEM containing 10% (v/v) heat inactivated FBS, 1% penicillin-streptomycin, 10 µg/mL insulin, 0.25 µM Dexamethasone (GAP), 0.5 mM IBMX (=differentiation medium I). On day 3, the medium was changed to high glucose DMEM containing 10% FBS, 1% penicillin- streptomycin, and 10 µg/mL insulin (=differentiation medium II). Thereafter, medium was changed every other day switching between differentiation medium I and differentiation medium II until day 12 or 23, when adipocytes were harvested. Control group preadipocytes were seeded at a higher density and harvested after two days. Test compounds were administered either at the initiation of differentiation, or after 15 days of differentiation and with every medium change. To determine the effect on preadipocyte differentiation, cells were seeded and after 24 h they were treated with neorogioldiol. Neorogioldiol was maintained in the culture medium throughout cell differentiation period. To determine the effect of neorogioldiol on mature adipocytes, cells were seeded and induced to differentiate for 14 days, then on day 15 neorogioldiol was added to the differentiation medium for 24 h before cells were harvested. Each compound used was diluted in a 90% carbowax™ 400, 10% (v/v) absolute ethanol solution serving as a control solvent. The final concentration in culture was 0.09% (v/v) carbowax and 0.01% (v/v) ethanol. Compounds were used at the following concentrations: neorogioldiol (1) 62.5µM and neorogioltriol (2) 25µM.
Adipocytes and preadipocytes were harvested using the TRI Reagent®. RNA isolation was carried out according to the manufacturer's instructions. The purified RNA was quantified using the Nanodrop micro-volume spectrophotometer and 500 ng of each sample were used as a template for reverse transcription. cDNA synthesis was performed using the PrimeScriptTM RT reagent Kit (TaKaRa, RR037A) according to manufacturer's instructions. The cDNA produced by the above described procedure was diluted and used as a template for two-step quantitative PCR in a StepOnePlus™ Real-Time PCR System (Applied Biosystems™, 4376600) for a maximum of 40 cycles, as follows: start step 95 °C for 3 min, repeat steps: 95 °C for 15 s and 60 °C for 30 s. Amplification was performed using KAPA SYBR® FAST Universal qPCR kit (Kapa Biosystems, KK4618) according to manufacturer's instructions. Relative quantitative analysis was accomplished calculating fold-changes of gene expression as 2-(ΔΔCt), where ΔCt is (Ct (gene of interest) - Ct (housekeeping gene)). Ppib was used as internal control gene in 3T3L1 cells and in the fat fraction of mice abdominal fat, Rps9 was used as internal control gene in the stromal vascular fraction of mice abdominal fat and Actb was used as internal control gene in liver samples. Table 1. List of primers used for quantitative real-time PCR analysis.

A short description of data set [2]: Serum biochemical toxicity markers in high fat diet-fed mice. Type of data set: in vivo, C57BL/6 adult male mice. The settings on record: intraperitoneal 0.25 mg/mouse every 48 h for 35 days; vs control group. The method, then:
All procedures were conducted in compliance with protocols approved by the Animal Care Committee of the University of Crete, School of Medicine (Facility number EL91-BIOexp-06), in conjunction with the Veterinary Department of the Region of Crete, Heraklion, Crete, Greece. C57BL/6 adult male mice were maintained in a 12 h day/night cycle and 21-23 °C conditions. Mice were provided with water and either normal fat diet, or high fat diet (60% energy from fat) ad libitum. All mice were weighed every 48 h.
Neorogioldiol was first dissolved in 90% carbowaxTM 400, 10% (v/v) absolute ethanol solution and then diluted 1:10 in water for injection. A dose of 0.25 mg neorogioldiol in a total volume of 200 µl was administered intraperitoneally every 48 h in mice in high fat + neorogioldiol group starting from day 1. 4-5 mice were used per group and each experiment was performed twice.
To detect serum levels of alanine transaminase, aspartate transaminase, creatine phosphokinase and lactate dehydrogenase, serum was collected from peripheral blood via cardiac puncture under isoflurane anesthesia. Serum samples were stored at -80 °C. The levels of alanine transaminase, aspartate transaminase, creatine phosphokinase and lactate dehydrogenase were measured by standard enzymatic procedures using an automated biochemical analyzer AU5800 (Beckman).

Setting [3] is: cells differentiated in the presence of compound, 12 days, 1 at 62.5 µM, 2 at 25 µM.
The mark [4] stands for this setting: differentiation in presence of serial concentrations 62.5, 31.25, 15.625, 7.81 and 3.9 µM, dose-dependent.
Where [5] appears, read: mature adipocytes: differentiated 15 days, then 62.5 µM for 8 more days.

This is an account of results in patent EP4556003A1, “ANTI-OBESITY AND ANTI-DIABETIC ACTIVITY OF BROMINATED DITERPENES FROM RED ALGAE OF THE GENUS LAURENCIA AND APPLICATIONS THEREOF” (priority 2023, dated 2025).

neorogioldiol: in data set [1] (adipocytes), the Gapdh expression entry is listed as “decreasing”, the Hk2 expression result is given as “decreasing” and the Pfkfb3 expression entry is recorded as “decreasing”. In data set [1] (setting [3]), the Adipoq expression levels entry is given as “restricted the increase”, the “Dlkl mRNA expression” value is reported as “diminished”, the Lep expression levels entry is listed as “restricted the increase” and the Slc2a4 expression levels result was “restricted the increase”. In addition, in data set [1] (setting [4]), the Lep levels entry was “restricted the increase” and the Slc2a4 levels entry is recorded as “restricted the increase”. In data set [1] (setting [5]), the Adipoq expression result is “decreased the expression”, the Fabp4 expression entry is on record as “decreased the expression” and the Pparg expression entry is given as “decreased the expression”. Further, in data set [1] (preadipocytes), the Gapdh expression entry is “downregulated”, the Hk2 expression result is “downregulated” and the Pfkfb3 expression entry was “downregulated”. In data set [2], the “alanine transaminase in serum” value is “No difference”, the “aspartate transaminase in serum” value is recorded as “No difference”, the “creatine phosphokinase in serum” value is listed as “No difference” and the “lactate dehydrogenase in serum” value is listed as “No difference”.
